According to US10520508B2, “Predictive baseline biomarkers for use of vascular disrupting agents” (BIONOMICS LIMITED, priority 2014, dated 2019):

Key:
[1] = Disruptor-1 trial: BNC105P in combination with everolimus, maximum tolerated dose; assay type: in vivo, human (metastatic clear cell renal cell carcinoma patients); conditions: intravenous infusion over 10 minutes, days 1 and 8 of 21 day cycle, with 10 mg oral everolimus daily
From the text: The objective of the study was to determine the response rate of patients administered BNC105P (vascular disrupting agent) in combination with everolimus (mTOR inhibitor) in patients who had progressed from prior tyrosine kinase inhibitor therapy. In addition, the present inventors determined the improvement in 6-months progression free survival (PFS) with the addition of BNC105P to everolimus (Afinitor). A control group of patients received everolimus alone.
The medical histories of patients were obtained prior to commencement of the study.
Patients in the BNC105P in combination with everolimus study group (the “combination arm”) were administered 10 mg oral everolimus daily. On days 1 and 8 of the 21 day cycle period, the patients were administered 16 mg/m^2 BNC105P, which had been determined to be the maximum tolerated dose, by intravenous infusion over a 10 minute period (FIG. 1). Treatment was continued until disease progressed, intolerable toxicity became apparent, or until consent was withdrawn. A control group of patients were administered with everolimus alone.

[2] = tested on: tumour endothelial cells (activated) and normal endothelial cells (quiescent); test: Potency against activated (tumour) versus quiescent (normal) endothelial cells; assay type: cell-based; conditions: activated vs quiescent endothelial cells
tubulin = test: Tubulin polymerisation inhibition; assay type: biochemical

COc1cc(C(=O)c2c(C)oc3c(OP(=O)([O-])[O-])c(OC)ccc23)cc(OC)c1OC.[Na+].[Na+] [BNC105P, disodium [6-methoxy-2-methyl-3-(3,4,5-trimethoxybenzoyl)-1-benzofuran-7-yl] phosphate]
maximum tolerated dose [1]: 16 mg/m^2

COc1ccc(/C=C\c2cc(OC)c(OC)c(OC)c2)cc1O [Combretastatin A4, reference compound]
selectivity between activated (tumour) and quiescent (normal) endothelial cells [2]: equally potent against quiescent and activated endothelial cells

COc1cc(C(=O)c2c(C)oc3c(O)c(OC)ccc23)cc(OC)c1OC [formula III, 2-methyl-7-hydroxy-3-(3,4,5-trimethoxybenzoyl)-6-methoxybenzofuran]
selectivity between activated (tumour) and quiescent (normal) endothelial cells [2]: show selectivity towards tumor endothelial cells (activated) over normal endothelial cells (quiescent) | tubulin polymerisation inhibition (tubulin): potent tubulin polymerisation inhibitors
